Test results as given in patent publication EP0398230B1, “Antiviral, highly water soluble, stable, crystalline salts of 2',3'-dideoxyinoside monohydrate, 2',3'-dideoxy-2',3'-didehydrothymidine monohydrate and 2',3'-dideoxy-2'-fluoroinosine hemihydrate” (priority 1989, dated 1990).
Read-outs that look alike come from different tables or passages of the source.

How the values were obtained:
physchem = conditions: water, pH 10, water, thermodynamic from solid
[1] = 5 weeks at 70°C

Structure (SMILES) | solubility (physchem) [mg/mL] | Aqueous Solution Stability, loss (1 week at 50°C) [%] | Aqueous Solution Stability, loss (1 week at 70°C) [%] | Solid State Stability [1]
O=c1[nH]cnc2c1ncn2[C@@H]1O[C@H](CO)C[C@@H]1F [Sodium F-ddI Hemihydrate, sodium-2',3'-dideoxy-2'-fluoroinosine] | ~400 |  |  | 
OC[C@@H]1CC[C@H](n2cnc3c(O)ncnc32)O1.[Na] [Na-DDI·H2O, sodium-2',3'-dideoxyinosine] |  | 5 | 10 | No loss
